Test results taken from ChEMBL document CHEMBL4725409, “Understanding and Improving the Membrane Permeability of VH032-Based PROTACs” (ACS Med Chem Lett, 2020).

Experiment: Partition coefficient, logD of the compound in 1,9-decadiene and phosphate buffer at pH 7.4 measured after 30 mins under shaking condition by LC-MS analysis
Type: physicochemical
Details: not given

Row | SMILES | logD hydrocarbon water at 0.5 h
1 | CC(=O)N1c2ccc(-c3ccc(C(=O)NCCOCCOCCOCCOCC(=O)N[C@H](C(=O)N4C[C@H](O)C[C@H]4C(=O)NCc4ccc(-c5scnc5C)cc4)C(C)(C)C)cc3)cc2[C@H](Nc2ccc(Cl)cc2)C[C@@H]1C | -0.7
2 | Cc1ncsc1-c1ccc(CNC(=O)[C@@H]2C[C@@H](O)CN2C(=O)[C@@H](NC(=O)COCCOCCOCCNC(=O)C[C@@H]2N=C(c3ccc(Cl)cc3)c3c(sc(C)c3C)-n3c(C)nnc32)C(C)(C)C)cc1 | -1.6
3 | Cc1ncsc1-c1ccc(CNC(=O)[C@@H]2C[C@@H](O)CN2C(=O)[C@@H](NC(=O)COCCOCCNC(=O)C[C@@H]2N=C(c3ccc(Cl)cc3)c3c(sc(C)c3C)-n3c(C)nnc32)C(C)(C)C)cc1 | -1.1
4 | CC(=O)N1c2ccc(-c3ccc(C(=O)NCCOCCOCC(=O)N[C@H](C(=O)N4C[C@H](O)C[C@H]4C(=O)NCc4ccc(-c5scnc5C)cc4)C(C)(C)C)cc3)cc2[C@H](Nc2ccc(Cl)cc2)C[C@@H]1C | -0.7
5 | Cc1ncsc1-c1ccc(CNC(=O)[C@@H]2C[C@@H](O)CN2C(=O)[C@@H](NC(=O)COCCOCCOCCOCCOCCOCC(=O)N[C@H](C(=O)N2C[C@H](O)C[C@H]2C(=O)NCc2ccc(-c3scnc3C)cc2)C(C)(C)C)C(C)(C)C)cc1 | -4.3
6 | CC(=O)N[C@H](C(=O)N1C[C@H](O)C[C@H]1C(=O)NCc1ccc(-c2scnc2C)cc1)C(C)(C)SCCOCCOCCNC(=O)C[C@@H]1N=C(c2ccc(Cl)cc2)c2c(sc(C)c2C)-n2c(C)nnc21 | -4.3
7 | CC(=O)N[C@H](C(=O)N1C[C@H](O)C[C@H]1C(=O)NCc1ccc(-c2scnc2C)cc1)C(C)(C)SCCOCCNC(=O)C[C@@H]1N=C(c2ccc(Cl)cc2)c2c(sc(C)c2C)-n2c(C)nnc21 | -3.8
8 | Cc1ncsc1-c1ccc(CNC(=O)[C@@H]2C[C@@H](O)CN2C(=O)[C@@H](NC(=O)COCCOCCOCCOCC(=O)N[C@H](C(=O)N2C[C@H](O)C[C@H]2C(=O)NCc2ccc(-c3scnc3C)cc2)C(C)(C)C)C(C)(C)C)cc1 | -3.8
9 | Cc1ncsc1-c1ccc(CNC(=O)[C@@H]2C[C@@H](O)CN2C(=O)[C@@H](OC(=O)CCOCCOCCOCCNC(=O)Cc2ccccc2)C(C)(C)C)cc1 | -1.6
10 | CC(=O)N[C@H](C(=O)N1C[C@H](O)C[C@H]1C(=O)NCc1ccc(-c2scnc2C)cc1)C(C)(C)SCCCCNC(=O)C[C@@H]1N=C(c2ccc(Cl)cc2)c2c(sc(C)c2C)-n2c(C)nnc21 | -3.8
11 | Cc1ncsc1-c1ccc(CNC(=O)[C@@H]2C[C@@H](O)CN2C(=O)[C@@H](NC(=O)[C@H](Cc2ccccc2)NC(=O)COCCOCCOCCNC(=O)C[C@@H]2N=C(c3ccc(Cl)cc3)c3c(sc(C)c3C)-n3c(C)nnc32)C(C)(C)C)cc1 | -1.6
12 | Cc1ncsc1-c1ccc(CNC(=O)[C@@H]2C[C@@H](O)CN2C(=O)[C@@H](NC(=O)Cc2ccccc2)C(C)(C)C)cc1 | -0.7
13 | Cc1ncsc1-c1ccc(CNC(=O)[C@@H]2C[C@@H](O)CN2C(=O)[C@@H](NC(=O)CCOCCOCCOCCNC(=O)Cc2ccccc2)C(C)(C)C)cc1 | -2.2
14 | Cc1ncsc1-c1ccc(CNC(=O)[C@@H]2C[C@H](O)CN2C(=O)[C@@H](NC(=O)COCCOCCOCCOCCOCCOCC(=O)N[C@H](C(=O)N2C[C@@H](O)C[C@H]2C(=O)NCc2ccc(-c3scnc3C)cc2)C(C)(C)C)C(C)(C)C)cc1 | -3.2

Experiment: Permeability of the compound in phosphate buffer containing 5% DMSO at pH 7.4 incubated for 15 hrs by PAMPA based LC/MS analysis
Type: ADME
Details: pH 7.4, 15 h

Row | SMILES | Peff
15 | Cc1ncsc1-c1ccc(CNC(=O)[C@@H]2C[C@@H](O)CN2C(=O)[C@@H](NC(=O)COCCOCCOCCOCCOCCOCC(=O)N[C@H](C(=O)N2C[C@H](O)C[C@H]2C(=O)NCc2ccc(-c3scnc3C)cc2)C(C)(C)C)C(C)(C)C)cc1 | 0.005 10^-6 cm/s
16 | Cc1ncsc1-c1ccc(CNC(=O)[C@@H]2C[C@@H](O)CN2C(=O)[C@@H](NC(=O)COCCOCCOCCOCC(=O)N[C@H](C(=O)N2C[C@H](O)C[C@H]2C(=O)NCc2ccc(-c3scnc3C)cc2)C(C)(C)C)C(C)(C)C)cc1 | 0.009 10^-6 cm/s
